Experimental data published in ChEMBL document CHEMBL1287680, “C-11 diamino cryptolepine derivatives NSC748392, NSC748393, and NSC748394: anticancer profile and G-quadruplex stabilization” (Bioorg Med Chem Lett, 2010).

Experiments:
cells = conditions: Homo sapiens; for GI50: RPMI8266, read-out: pGI50 (converted); for CC50: RPMI8266, read-out: pLC50 (converted); for TGI: RPMI8266, read-out: pTGI
Description: Anticancer activity against human RPMI8266 cells

MDA-MB-435 = experiment: cells; conditions: Homo sapiens; for GI50: MDA-MB-435, read-out: pGI50 (converted); for CC50: MDA-MB-435, read-out: pLC50 (converted); for TGI: MDA-MB-435, read-out: pTGI
Description: Anticancer activity against human MDA-MB-435 cells

Nucleic Acid [1] = conditions: Homo sapiens
Description: Binding affinity to human G-quadruplex DNA assessed as change in melting temperature by FRET-melting assay

T47D = experiment: cells; conditions: Homo sapiens; for GI50: read-out: pGI50 (converted); for TGI: read-out: pTGI
Description: Anticancer activity against human T47D cells

Malme-3M = experiment: cells; conditions: Homo sapiens; for GI50: read-out: pGI50 (converted); for CC50: read-out: pLC50 (converted); for TGI: read-out: pTGI
Description: Anticancer activity against human MALME-3M cells

OVCAR-8 = experiment: cells; conditions: Homo sapiens; for GI50: OVCAR-8, read-out: pGI50 (converted)
Description: Anticancer activity against human OVCAR8 cells

NCI-H522 = experiment: cells; conditions: Homo sapiens; for GI50: NCI-H522, read-out: pGI50 (converted); for TGI: NCI-H522, read-out: pTGI
Description: Anticancer activity against human NCI-H522 cells

SW-620 = experiment: cells; conditions: Homo sapiens; for GI50: SW-620, read-out: pGI50 (converted); for TGI: SW-620, read-out: pTGI
Description: Anticancer activity against human SW620 cells

LOX IMVI = experiment: cells; conditions: Homo sapiens; for GI50: read-out: pGI50 (converted); for CC50: read-out: pLC50 (converted); for TGI: read-out: pTGI
Description: Anticancer activity against human LOXIMVI cells

HOP-62 = experiment: cells; conditions: Homo sapiens; for GI50: HOP-62, read-out: pGI50 (converted); for CC50: HOP-62, read-out: pLC50 (converted); for TGI: HOP-62, read-out: pTGI
Description: Anticancer activity against human HOP62 cells

OVCAR-4 = experiment: cells; conditions: Homo sapiens; for GI50: OVCAR-4, read-out: pGI50 (converted); for TGI: OVCAR-4, read-out: pTGI
Description: Anticancer activity against human OVCAR4 cells

COLO 205 = experiment: cells; conditions: Homo sapiens; for GI50: COLO 205, read-out: pGI50 (converted); for CC50: COLO 205, read-out: pLC50 (converted); for TGI: COLO 205, read-out: pTGI
Description: Anticancer activity against human COLO205 cells

K562 = experiment: cells; conditions: Homo sapiens; for CC50: K562, read-out: pLC50 (converted); for TGI: K562, read-out: pTGI
Description: Anticancer activity against human K562 cells

DU-145 = experiment: cells; conditions: Homo sapiens; for GI50: DU-145, read-out: pGI50 (converted); for CC50: DU-145, read-out: pLC50 (converted); for TGI: DU-145, read-out: pTGI
Description: Anticancer activity against human DU145 cells

SK-MEL-5 = experiment: cells; conditions: Homo sapiens; for GI50: SK-MEL-5, read-out: pGI50 (converted); for CC50: SK-MEL-5, read-out: pLC50 (converted); for TGI: SK-MEL-5, read-out: pTGI
Description: Anticancer activity against human SK-MEL-5 cells

EKVX = experiment: cells; conditions: Homo sapiens; for GI50: read-out: pGI50 (converted); for CC50: read-out: pLC50 (converted); for TGI: read-out: pTGI
Description: Anticancer activity against human EKVX cells

M14 = experiment: cells; conditions: Homo sapiens; for GI50: M14, read-out: pGI50 (converted); for CC50: M14, read-out: pLC50 (converted); for TGI: M14, read-out: pTGI
Description: Anticancer activity against human M14 cells

NCI-H460 = experiment: cells; conditions: Homo sapiens; for GI50: NCI-H460, read-out: pGI50 (converted); for CC50: NCI-H460, read-out: pLC50 (converted); for TGI: NCI-H460, read-out: pTGI
Description: Anticancer activity against human NCI-H460 cells

OVCAR-3 = experiment: cells; conditions: Homo sapiens; for GI50: OVCAR-3, read-out: pGI50 (converted); for CC50: OVCAR-3, read-out: pLC50 (converted); for TGI: OVCAR-3, read-out: pTGI
Description: Anticancer activity against human OVCAR-3 cells

NCI-H23 = experiment: cells; conditions: Homo sapiens; for GI50: NCI-H23, read-out: pGI50 (converted); for CC50: NCI-H23, read-out: pLC50 (converted); for TGI: NCI-H23, read-out: pTGI
Description: Anticancer activity against human NCI-H23 cells

UO-31 = experiment: cells; conditions: Homo sapiens; for GI50: UO-31, read-out: pGI50 (converted); for CC50: UO-31, read-out: pLC50 (converted); for TGI: UO-31, read-out: pTGI
Description: Anticancer activity against human UO31 cells

A498 = experiment: cells; conditions: Homo sapiens; for GI50: A498, read-out: pGI50 (converted); for CC50: A498, read-out: pLC50 (converted); for TGI: A498, read-out: pTGI
Description: Anticancer activity against human A498 cells

PC-3 = experiment: cells; conditions: Homo sapiens; for GI50: PC-3, read-out: pGI50 (converted); for CC50: PC-3, read-out: pLC50 (converted); for TGI: PC-3, read-out: pTGI
Description: Anticancer activity against human PC3 cells

SN12C = experiment: cells; conditions: Homo sapiens; for GI50: read-out: pGI50 (converted); for CC50: read-out: pLC50 (converted); for TGI: read-out: pTGI
Description: Anticancer activity against human SN12C cells

SR = experiment: cells; conditions: Homo sapiens; for GI50: read-out: pGI50 (converted); for CC50: read-out: pLC50 (converted); for TGI: read-out: pTGI
Description: Anticancer activity against human SR cells

IGROV-1 = experiment: cells; conditions: Homo sapiens; for GI50: IGROV-1, read-out: pGI50 (converted); for CC50: IGROV-1, read-out: pLC50 (converted); for TGI: IGROV-1, read-out: pTGI
Description: Anticancer activity against human IGROV1 cells

Nucleic Acid [2] = conditions: Homo sapiens; remark: listed apart in the source
Description: Binding affinity to human duplex DNA assessed as change in melting temperature by FRET-melting assay

MCF7 = experiment: cells; conditions: Homo sapiens; for GI50: MCF7, read-out: pGI50 (converted); for CC50: MCF7, read-out: pLC50 (converted); for TGI: MCF7, read-out: pTGI
Description: Anticancer activity against human MCF7 cells

SF-539 = experiment: cells; conditions: Homo sapiens; for GI50: SF-539, read-out: pGI50 (converted); for CC50: SF-539, read-out: pLC50 (converted); for TGI: SF-539, read-out: pTGI
Description: Anticancer activity against human SF539 cells

KM12 = experiment: cells; conditions: Homo sapiens; for GI50: KM12, read-out: pGI50 (converted); for CC50: KM12, read-out: pLC50 (converted); for TGI: KM12, read-out: pTGI
Description: Anticancer activity against human KM12 cells

NCI-H322M = experiment: cells; conditions: Homo sapiens; for GI50: read-out: pGI50 (converted); for CC50: read-out: pLC50 (converted); for TGI: read-out: pTGI
Description: Anticancer activity against human NCI-H322M cells

Description for physchem: Dissociation constant, pKa of the compound by UV-visible spectroscopy

CCN(CC)CCCCNc1c2ccccc2[n+](C)c2c1[nH]c1ccccc12.[Cl-]
GI50 (cells): 0.288 µM
CC50 (cells): > 100 µM
TGI (cells): 1.66 µM
GI50 (MDA-MB-435): 0.631 µM
CC50 (MDA-MB-435): 5.62 µM
TGI (MDA-MB-435): 2.09 µM
ΔTm (Nucleic Acid [1]): 20.9 °C
GI50 (T47D): 0.129 µM
CC50 (T47D; read-out: pLC50 (converted)): 25.7 µM
TGI (T47D): 0.776 µM
GI50 (Malme-3M): 0.204 µM
CC50 (Malme-3M): 2.51 µM
TGI (Malme-3M): 0.646 µM
GI50 (OVCAR-8): 0.617 µM
CC50 (OVCAR-8; OVCAR-8, read-out: pLC50 (converted)): > 100 µM
TGI (OVCAR-8; OVCAR-8, read-out: pTGI): 10.2 µM
GI50 (NCI-H522): 0.148 µM
CC50 (NCI-H522; NCI-H522, read-out: pLC50 (converted)): 1.82 µM
TGI (NCI-H522): 0.457 µM
GI50 (SW-620): 0.339 µM
CC50 (SW-620; SW-620, read-out: pLC50 (converted)): > 100 µM
TGI (SW-620): 5.25 µM
GI50 (LOX IMVI): 0.331 µM
CC50 (LOX IMVI): 7.41 µM
TGI (LOX IMVI): 1.41 µM
GI50 (HOP-62): 1.1 µM
CC50 (HOP-62): 61.7 µM
TGI (HOP-62): 4.47 µM
GI50 (OVCAR-4): 0.437 µM
TGI (OVCAR-4): 1.7 µM
GI50 (COLO 205): 0.158 µM
CC50 (COLO 205): 2.95 µM
TGI (COLO 205): 0.676 µM
CC50 (K562): > 100 µM
TGI (K562): > 100 µM
GI50 (DU-145): 0.17 µM
CC50 (DU-145): 89.1 µM
TGI (DU-145): 10 µM
GI50 (SK-MEL-5): 0.219 µM
CC50 (SK-MEL-5): 2.24 µM
TGI (SK-MEL-5): 0.617 µM
GI50 (EKVX): 0.269 µM
CC50 (EKVX): > 100 µM
TGI (EKVX): 3.63 µM
GI50 (M14): 1.35 µM
CC50 (M14): 7.41 µM
TGI (M14): 3.16 µM
GI50 (NCI-H460): 0.0912 µM
CC50 (NCI-H460): 52.5 µM
TGI (NCI-H460): 1.29 µM
GI50 (OVCAR-3): 0.427 µM
CC50 (OVCAR-3): > 100 µM
TGI (OVCAR-3): 2.45 µM
GI50 (NCI-H23): 0.191 µM
CC50 (NCI-H23): 3.47 µM
TGI (NCI-H23): 0.724 µM
GI50 (UO-31): 2.4 µM
CC50 (UO-31): > 100 µM
TGI (UO-31): 25.7 µM
GI50 (A498): 0.468 µM
CC50 (A498): < 7.59 µM
TGI (A498): 2.04 µM
GI50 (PC-3): 0.324 µM
CC50 (PC-3): 100 µM
TGI (PC-3): 2.24 µM
GI50 (SN12C): 0.0525 µM
CC50 (SN12C): > 72.4 µM
TGI (SN12C): 3.24 µM
GI50 (SR): 0.372 µM
CC50 (SR): > 100 µM
TGI (SR): 42.7 µM
GI50 (IGROV-1): 0.468 µM
CC50 (IGROV-1): > 100 µM
TGI (IGROV-1): 7.41 µM
ΔTm (Nucleic Acid [2]): 13.1 °C
GI50 (MCF7): 0.224 µM
CC50 (MCF7): > 36.3 µM
TGI (MCF7): 0.794 µM
GI50 (SF-539): 0.427 µM
CC50 (SF-539): 4.07 µM
TGI (SF-539): 1.62 µM
GI50 (KM12): 0.372 µM
CC50 (KM12): 70.8 µM
TGI (KM12): 4.47 µM
GI50 (NCI-H322M): 0.275 µM
CC50 (NCI-H322M): > 100 µM
TGI (NCI-H322M): 2.75 µM
pKa (physchem): 11.6

C[n+]1c2ccccc2c(Nc2ccc(N3CCCCC3)cc2)c2[nH]c3ccccc3c21.[Cl-]
GI50 (cells): 0.158 µM
CC50 (cells): 1 µM
TGI (cells): 0.398 µM
GI50 (MDA-MB-435): 0.447 µM
CC50 (MDA-MB-435): 4.9 µM
TGI (MDA-MB-435): 1.66 µM
ΔTm (Nucleic Acid [1]): 4.2 °C
GI50 (T47D): 0.214 µM
TGI (T47D): 0.603 µM
GI50 (Malme-3M): 0.417 µM
CC50 (Malme-3M): 4.57 µM
TGI (Malme-3M): 1.7 µM
GI50 (OVCAR-8): 0.316 µM
GI50 (NCI-H522): 0.741 µM
TGI (NCI-H522): 2.14 µM
GI50 (SW-620): 0.105 µM
TGI (SW-620): 0.372 µM
GI50 (LOX IMVI): 0.148 µM
CC50 (LOX IMVI): 1.45 µM
TGI (LOX IMVI): 0.398 µM
GI50 (HOP-62): 0.741 µM
CC50 (HOP-62): 5.25 µM
TGI (HOP-62): 2.19 µM
GI50 (OVCAR-4): 0.363 µM
CC50 (OVCAR-4; OVCAR-4, read-out: pLC50 (converted)): 3.98 µM
TGI (OVCAR-4): 1.35 µM
GI50 (COLO 205): 0.141 µM
CC50 (COLO 205): 0.851 µM
TGI (COLO 205): 0.347 µM
CC50 (K562): > 100 µM
TGI (K562): > 100 µM
GI50 (DU-145): 0.398 µM
CC50 (DU-145): 4.17 µM
TGI (DU-145): 1.48 µM
GI50 (SK-MEL-5): 0.229 µM
CC50 (SK-MEL-5): 3.47 µM
TGI (SK-MEL-5): 1.2 µM
GI50 (EKVX): 0.427 µM
CC50 (EKVX): 4.68 µM
TGI (EKVX): 1.86 µM
GI50 (M14): 0.389 µM
CC50 (M14): 4.07 µM
TGI (M14): 1.45 µM
GI50 (NCI-H460): 0.145 µM
CC50 (NCI-H460): 2.29 µM
TGI (NCI-H460): 0.468 µM
GI50 (OVCAR-3): 0.224 µM
CC50 (OVCAR-3): 0.933 µM
TGI (OVCAR-3): 0.457 µM
GI50 (NCI-H23): 0.398 µM
CC50 (NCI-H23): 6.61 µM
TGI (NCI-H23): 1.7 µM
GI50 (UO-31): 0.145 µM
CC50 (UO-31): 3.02 µM
TGI (UO-31): 0.832 µM
GI50 (A498): 0.178 µM
CC50 (A498): 2.14 µM
TGI (A498): 0.537 µM
GI50 (PC-3): 0.195 µM
CC50 (PC-3): 3.24 µM
TGI (PC-3): 0.631 µM
GI50 (SN12C): 0.204 µM
CC50 (SN12C): 6.76 µM
TGI (SN12C): 1.41 µM
GI50 (SR): 3.8 µM
CC50 (SR): > 100 µM
TGI (SR): > 100 µM
GI50 (IGROV-1): 0.229 µM
CC50 (IGROV-1): 3.47 µM
TGI (IGROV-1): 1.17 µM
ΔTm (Nucleic Acid [2]): 1.2 °C
GI50 (MCF7): 0.126 µM
CC50 (MCF7): 0.912 µM
TGI (MCF7): 0.339 µM
GI50 (SF-539): 0.646 µM
CC50 (SF-539): 4.47 µM
TGI (SF-539): 1.95 µM
GI50 (KM12): 0.372 µM
CC50 (KM12): 5.13 µM
TGI (KM12): 1.48 µM
GI50 (NCI-H322M): 1.02 µM
CC50 (NCI-H322M): 5.5 µM
TGI (NCI-H322M): 2.4 µM
pKa (physchem): 10
